Patent publication US5462927A, “Peptides aiding nerve regeneration” (The Administrators of the Tulane Educational Fund, priority 1992, dated 1995)
Like-named read-outs stand apart in the source and are kept apart here. Square brackets hold non-standard residues; d marks the D form. Peptide text beside a SMILES is read from it.

How the values were obtained:
Type in all cases: in vivo, rat
[1] = test system: sectioned sciatic nerve; common extensor muscle of the fingers; conditions: for Muscle Tetnus: Fatigue / Muscle Tetnus: Muscle Strength / Muscle Tetnus: Muscle Strength Normalized to Muscle Weight / Muscle Tetnus: Speed of Contraction / Muscle Tetnus: Speed of Relaxation / Tetanic Strength/Single Pulse Strength: 35d. p.o.p.
crushed peroneal nerve = assay: Walking test (locomotor pattern, toespread) after peroneal nerve crush
Description: The effect of BIM-22015 regeneration of the crushed peroneal nerve in the rat was assessed using both morphological and physiological studies, as follows. Both locomotor pattern and endplate morphology during the early stages of crushed nerve regeneration were assessed after treatment with BIM-220150 Adult Sprague-Dawley male rats (Taconic Farms) were maintained at 25° C. on a 12 hour light and a 12 hour dark cycle and were supplied with standard rat chow and water ad lib. All surgery was performed under anesthesia with 8% chlorohydrate (0.6 ml/100 g I.P.). Denervation was accomplished using a #5 Dumont forceps with a uniformly filed tip to crush the peroneal nerve. This crush produced a 1 mm wide lesion just proximal to the EDL (extention digitarum longus) muscle. The wound was closed with surgical staples. Following surgery, the animal was immediately administered saline or BIM-22015 in one of the following dosages: (1) 0.9% saline, (2) 10.0 ug BIM-22015, (3) 5.0 ug BIM-22015, (3) 1.0 ug BIM-22015, or (4) 0.1 ug BIM-22015 (per animal). Administration continued once every 48 hours for 5 days; on day 5, the rats were killed and tissues taken for morphological analysis. All injections and surgeries occurred between 10:00 and 12:00 noon.
Locomotor pattern was tested by measuring the walking pattern of the animal. The animal was allowed to walk up a 20° inclined platform. The track was well-lit by fluorescent tubes and a dark box was placed at the end of the track. This dark and light differences was used to entice the animal to walk up the track. […] The distance between the first and fifth digit was determined using a Manostat mechanical caliper (type 6911) with accuracy of ±0.005 mm0 The contralateral foot was used as a control to negate the size differences in individual animals. The Student T test was used to determine the statistical differences, and data were expressed as means of the six sharpest toespreads and the standard error of the mean (using 95% confidence formula), standard deviation, and variances.

[2] = test system: sectioned sciatic nerve; common extensor muscle of the finger; assay: Muscle weight after sciatic nerve section; conditions: for Muscle weight Normalized to Mean Animal Weight: 35d. p.o.
[3] = test system: sectioned sciatic nerve; common extensor muscle of the finger; assay: Characteristics of a single pulse of the common extensor muscle after sciatic nerve section; conditions: for Single Pulse: Contraction Time / Single Pulse: Half-Relaxation Time / Single Pulse: Latence / Single Pulse: Muscle Strength Normalized to Muscle Weight / Single Pulse: Speed of Contraction / Single Pulse: Speed of Relaxation / Single Pulse: Strength: 35d. p.o.p.
[4] = Group 3 (topical in tissucol, lower dose)
[5] = Group 4 (s.c. 5ug.kg.day for 18 days)
[6] = Group 2: Tissue col 10.0 μg/0.5 ml (topical)
[7] = Group 3: Tissue col 1.1 μg/10.5 ml (topical)
[8] = Group 4: s.c. 5 μg 1 kg/day (18 days)

## C[C@@H](N)C(=O)N[C@@H](CCC(N)=O)C(=O)N[C@@H](Cc1ccc(O)cc1)C(=O)N[C@@H](Cc1ccccc1)C(=O)N[C@@H](CCCNC(=N)N)C(=O)N[C@@H](Cc1c[nH]c2ccccc12)C(=O)NCC(N)=O [BIM-22015, D--Ala--Gln--Tyr--Phe--Arg--Trp--Gly--NH2] (H-[dA]QYFRWG-NH2)
[1]; Group 2 (topical in tissucol)
  Muscle Tetnus: Fatigue: 73,80%
  Muscle Tetnus: Muscle Strength: 61,83 g
  Muscle Tetnus: Muscle Strength Normalized to Muscle Weight: 0,91 g/ug
  Muscle Tetnus: Speed of Contraction: 2409 g/ms
  Muscle Tetnus: Speed of Relaxation: 2034 g/ms
  Tetanic Strength/Single Pulse Strength: 307,50%
[1]; [4]
  Muscle Tetnus: Fatigue: 75,55%
  Muscle Tetnus: Muscle Strength: 51,55 g
  Muscle Tetnus: Muscle Strength Normalized to Muscle Weight: 0,84 g/ug
  Muscle Tetnus: Speed of Contraction: 1737 g/ms
  Muscle Tetnus: Speed of Relaxation: 884 g/ms
  Tetanic Strength/Single Pulse Strength: 343,00%
[1]; [5]
  Muscle Tetnus: Fatigue: 72,12%
  Muscle Tetnus: Speed of Contraction: 5507 g/ms
  Muscle Tetnus: Speed of Relaxation: 4226 g/ms
  Tetanic Strength/Single Pulse Strength: 347,12%
[1]; rat, in vivo
  fatigability of the muscle: no effect
[1]; rat, in vivo, sc
  improvement of muscle strength over control group 1 (column 2, Table 3): 30%
Crushed peroneal nerve; 0.1 μg per animal, once every 48 hours, days 3-5 after surgery, not statistically significant
  recovery rate of locomotion (walking test): very consistent upward recovery rate
Crushed peroneal nerve; dosages 0.1-10.0 ug per animal compared
  optimal dosage (walking test): 0.1 µg
Crushed peroneal nerve; the other dosages (above 0.1 μg) vs saline control
  recovery rate of locomotion (walking test): outperformed the saline control animal but only by a slight margin
[2]; [6]
  Muscle Weight 35d. p.o.: 67.9 µg
  Muscle weight Normalized to Mean Animal Weight: 0.211
[2]; [7]
  Muscle Weight 35d. p.o.: 59.7 µg
  Muscle weight Normalized to Mean Animal Weight: 0.212
[2]; [8]
  Muscle Weight 35d. p.o.: 73.1 µg
  Muscle weight Normalized to Mean Animal Weight: 0.226
[2]; group 4 (s.c. administration), not statistically significant
  improvement of muscle weight normalized to mean animal weight over the control group 1: 15%
[2]; groups 2 and 3 (topical in tissucol)
  improvement of muscle weight normalized to mean animal weight over the control group 1: little improvement
[2]; topical administration (groups 2 and 3)
  effect on muscle measurements by route of administration: largely ineffective
[3]; Group 2 (topical in tissucol)
  Single Pulse: Contraction Time: 28.86 ms
  Single Pulse: Half-Relaxation Time: 64.69 ms
  Single Pulse: Latence: 9.93 ms
  Single Pulse: Muscle Strength Normalized to Muscle Weight: 0.30 g/µg
  Single Pulse: Speed of Contraction: 2419 g/ms
  Single Pulse: Speed of Relaxation: 514 g/ms
  Single Pulse: Strength: 20.03 g
[3]; [4]
  Single Pulse: Contraction Time: 16.37 ms
  Single Pulse: Half-Relaxation Time: 40.93 ms
  Single Pulse: Latence: 7.65 ms
  Single Pulse: Muscle Strength Normalized to Muscle Weight: 0.25 g/µg
  Single Pulse: Speed of Contraction: 2939 g/ms
  Single Pulse: Speed of Relaxation: 593 g/ms
  Single Pulse: Strength: 14.96 g
[3]; [5]
  Single Pulse: Contraction Time: 27.68 ms
  Single Pulse: Half-Relaxation Time: 60.72 ms
  Single Pulse: Latence: 9.48 ms
  Single Pulse: Speed of Contraction: 2420 g/ms
  Single Pulse: Speed of Relaxation: 635 g/ms
  Single Pulse: Strength: 26.45 g
[3]; Group 4 (s.c.), p=0.05
  improvement of muscle strength over control group 1 (column 1, Table 4): 28%
[3]; group 4 (s.c.), p=0.01
  improvement of speed of muscle contraction compared to group 1 (column 3, Table 4): 300%
[3]; printed as group 5
  speed of relaxation compared to group 1 (column 4, Table 4): dramatically improved
